Experimental data as given in US8816095B2, “Na channels, disease, and related assays and compositions” (Georgetown University, priority 2008, dated 2014).

Tests used:
human prostate tissue = assay: Staining of human prostate paraffin embedded tissue slices; conditions: 100 μM
Experimental: The binding and localization of compound 26 in prostate and prostate cancer tissue was studied. Human prostate paraffin embedded tissue slices were stained with 100 μM of compound 26 and dansyl amine.

hERG potassium channels = target: T1, hERG potassium channels (Homo sapiens, UniProt Q12809); assay: hERG binding assay ([35S]MK-499 displacement); conditions: [35S]MK-499, HEK-293 hERG membranes
T1 construct: expressed in transfected cells; host or cells: HEK-293 (membranes)
Excerpt: All four compounds were also counter-screened for human ether-a-go-go-related gene (hERG) activity against the radio-ligand MK-0499. Blockade of hERG K^+ channels is widely regarded as the predominant cause of drug-induced QT prolongation. (Aronov, A J Med Chem. 2006 Nov. 16; 49(23):6917-21).
MK-499, a potent hERG blocker, was used in a ligand binding assay to evaluate the binding of test compounds to hERG potassium channels as previously described (Wang, J et al. Am J Physiol Heart Circ Physiol, 2003, 284: H256-H267).^2 Test compounds were incubated with 0.05 nM of radiolabeled MK-499 ([35S]MK-499; specific Activity=1,279,010 μCi/μmol) in an assay buffer solution (70 mM NaCl, 60 mM KCl, 10 mM HEPES/NaOH (pH 7.4), 2 mM MgCl2, 1 mM CaCl2) also containing membranes isolated from HEK-293 cells stably expressing hERG channels in 96 well polypropylene deep-well assay plates at room temperature (25° C.) for >90 min. Assay plates were rinsed three time with buffer (130 mM NaCl, 10 mM HEPES/NaOH (pH 7.4), 2 mM MgCl2, 1 mM CaCl2) and the solution transferred to a Packard FilterMate Universal Harvester apparatus and filtered using PerkinElmer UniFilter-96 GF/C 96-well white microplates pre-soaked with 0.3% BSA (10 mL/L of 30% BSA). Plates were dried overnight at 37° C., or for 2 hrs at 56° C. The bottom of the plates were sealed and 0.025 mL of Microscint 0 was added to each well. The plates were top sealed and counted for 2 min/well in a Packard TopCount Scintillation counter. Test compounds were evaluated in a five point titration format using half-log steps from 0.3 μM to 30 μM. […] Less than 5% of the added radioactivity was retained on the filters. Assays were performed in triplicate.

hNav1.7 = target: T2, hNav1.7 (Homo sapiens, UniProt Q15858); assay: Fluorescent (FRET) based sodium channel assay, hNav1.7; type: cell-based; conditions: HEK293 stably transfected with hNav1.7, 20 μM veratridine, read-out: hNav 1.7 IC50
T2 construct: expressed in transfected cells; host or cells: HEK293
Experimental: Two isoforms of the channel were examined: hNav1.5, a cardiac sodium channel associated with arrhythmias, and hNav1.7, an isoform found in the peripheral nervous system.
HEK293 cells stably transfected with either hNav1.5 or hNav1.7 were plated at approximately 11,000-20,000 cells/well in flat bottom, poly-D-lysine coated black-wall, clear-bottom, 384-well plates (Becton Dickinson, Bedford, Mass.), and incubated overnight at 37° C. in a 10% CO2 atmosphere in growth medium. Cells were washed with 0.03 mL of Dulbecco's phosphate buffered saline (D-PBS) containing calcium and magnesium. Cells were then incubated with 0.025 mL of a solution containing 10 μM CC2-DMPE and 0.02% pluronic acid in D-PBS with calcium and magnesium; supplemented with 10 mM glucose, and 10 mM Hepes-NaOH, pH 7.4. […] Afterwards, cells were incubated in the dark at 25° C. for 45 min with 0.025 mL of a solution containing 5 μM DiSBAC2(3) in VIPR-S, in the absence or presence of test compound. At the end of the incubation period, the plate was placed in a FLIPR TETRA instrument (MDS Analytical Technologies, Sunnyvale Calif.), illuminated at 390-420 nm, and fluorescence emissions were recorded at approximately 1 Hz at 460 and 580 nm. Following a 7 second baseline reading, 0.025 mL of VIPR-S containing 10 μM veratridine for Nav1.5 or 20 μM veratridine for Nav1.7 was added to each well, and the emissions of both dyes were recorded for an additional 33 seconds. The change in fluorescence resonance energy transfer (FRET) ratio (F/F0) was calculated as: F/F0=((A460/A580/(I460/I580) where A and I represent the readings after or before addition of veratridine, respectively, at the indicated wavelengths. For I, the readings from 2-5 seconds were averaged, and for A, readings from 3 seconds after the signal had reached a plateau level (usually within 30-40 s) were also averaged. Triplicate measurements were performed for each experimental condition and the data were averaged.

CWR22rv-1 cells = assay: CWR22rv-1 prostate cancer cell death (propidium iodide, FACS); type: cell-based, human
Experimental: CWR22Rv1 cells (ATCC, Manassas, Va.) were seeded in 6 well tissue culture plate at density of 300,000 cells/well and maintained in RPMI 1640 (Mediatech, Herndon, Va.) containing 10% fetal bovine serum, 2.5 mM L-glutamine, and penicillin-streptomycin (100 IU/ml and 100 μg/ml, respectively) at 37° C. with 5% CO2. Cells were then switched to serum free RPMI media overnight prior to drug treatment. Compounds were dissolved in 100% dimethylsulfoxide (DMSO) and diluted to the desired concentrations in serum free RPMI. Cells were treated with indicated drug concentrations (in triplicate per treatment point) for 24, 48, 72 hour. After treatment, cells were harvested by trypsinization and fixed in 70% ethanol. The fixed cells were then stained with propidium iodide (50 μg/ml) after treatment with RNase (5 μg/ml). The stained cells were analyzed for DNA content using FACSsort (Becton Dickinson). Cell cycle fractions were quantified with Cell Quest (Becton Dickinson) or ModFit LT (Verity Software House).

[1] = target: T3, human Nav channel isoform, Nav1.2 (Homo sapiens, UniProt Q99250); assay: Patch clamp electrophysiology of compound 1 on Nav1.2 in HEK 293; type: cell-based; conditions: HEK293, HEK 293 Nav1.2, holding −60 mV to +10 mV, read-out: inhibition of Nav channel current
T3 construct: expressed in transfected cells; host or cells: HEK 293
Experimental: The effects of the racemic mixture and enantiomers of compound 1 were also examined by patch clamp electrophysiology on the human Nav channel isoform, Nav1.2, stably expressed in human embryonic kidney cells (HEK 293). Nav currents were elicited by step depolarizations from a holding potential of −60 mV to +10 mV for 25 ms at 15 s intervals. Sodium currents were record during a control drug free condition, after 5 mins of drug perfusion and following washout. […] The racemic mixture inhibited the sodium channel current by 31.9±2.9% (n=3) at 1 μM and by 87.0±3.1% (n=3) at 10 μM (FIG. 14). All drug effects were fully reversible on washout.
Sodium currents were recorded using the whole-cell configuration of the patch clamp recording technique with an Axopatch 200 amplifier (Axon Instruments, Foster City, Calif.). All voltage protocols were applied using pCLAMP 9 software (Axon, USA) and a Digidata 1322A (Axon, USA). Currents were amplified and low pass filtered (2 kHz) and sampled at 33 kHz. Borosilicate glass pipettes were pulled using a Brown-Flaming puller (model P87, Sutter Instruments Co, Novato, Calif.) and heat polished to produce electrode resistances of 1.5-3.0 MΩ when filled with the following electrode solution (in mM); CsCl 130, MgCl2 1, MgATP 5, BAPTA 10, HEPES 5 (pH adjusted to 7.4 with CsOH). Cells were plated on glass coverslips and superfused with solution containing the following composition; (in mM) NaCl 130, KCl 4, CaCl2 1, MgCl2 5, HEPES 5, and glucose 5 (pH adjusted to 7.4 with NaOH). Compounds were prepared as 100 mM stock solutions in dimethyl sulfoxide (DMSO) and diluted to desired concentration (1 μM or 10 μM) in perfusion solution. All experiments were performed at room temperature (20-22° C.). After establishing whole-cell, a minimum series resistance compensation of 75% was applied and cells were held at −100 mV for 5 minutes to account for equilibrium gating shifts. Sodium currents were evoked by stepping to +10 mV from a holding potential of −60 mV for 25 ms at 15 s intervals. After control recordings, test compounds were applied for five minutes to allow for bath equilibration. Tonic block was assessed by comparing peak sodium current in drug free conditions to peak current when drug was present. Data analysis was performed using Clampfit software (v9, Axon Instruments, CA, USA) and Origin (v6, Microcal Software, MA, USA).

T3 sequence (Q99250 whole entry, canonical isoform): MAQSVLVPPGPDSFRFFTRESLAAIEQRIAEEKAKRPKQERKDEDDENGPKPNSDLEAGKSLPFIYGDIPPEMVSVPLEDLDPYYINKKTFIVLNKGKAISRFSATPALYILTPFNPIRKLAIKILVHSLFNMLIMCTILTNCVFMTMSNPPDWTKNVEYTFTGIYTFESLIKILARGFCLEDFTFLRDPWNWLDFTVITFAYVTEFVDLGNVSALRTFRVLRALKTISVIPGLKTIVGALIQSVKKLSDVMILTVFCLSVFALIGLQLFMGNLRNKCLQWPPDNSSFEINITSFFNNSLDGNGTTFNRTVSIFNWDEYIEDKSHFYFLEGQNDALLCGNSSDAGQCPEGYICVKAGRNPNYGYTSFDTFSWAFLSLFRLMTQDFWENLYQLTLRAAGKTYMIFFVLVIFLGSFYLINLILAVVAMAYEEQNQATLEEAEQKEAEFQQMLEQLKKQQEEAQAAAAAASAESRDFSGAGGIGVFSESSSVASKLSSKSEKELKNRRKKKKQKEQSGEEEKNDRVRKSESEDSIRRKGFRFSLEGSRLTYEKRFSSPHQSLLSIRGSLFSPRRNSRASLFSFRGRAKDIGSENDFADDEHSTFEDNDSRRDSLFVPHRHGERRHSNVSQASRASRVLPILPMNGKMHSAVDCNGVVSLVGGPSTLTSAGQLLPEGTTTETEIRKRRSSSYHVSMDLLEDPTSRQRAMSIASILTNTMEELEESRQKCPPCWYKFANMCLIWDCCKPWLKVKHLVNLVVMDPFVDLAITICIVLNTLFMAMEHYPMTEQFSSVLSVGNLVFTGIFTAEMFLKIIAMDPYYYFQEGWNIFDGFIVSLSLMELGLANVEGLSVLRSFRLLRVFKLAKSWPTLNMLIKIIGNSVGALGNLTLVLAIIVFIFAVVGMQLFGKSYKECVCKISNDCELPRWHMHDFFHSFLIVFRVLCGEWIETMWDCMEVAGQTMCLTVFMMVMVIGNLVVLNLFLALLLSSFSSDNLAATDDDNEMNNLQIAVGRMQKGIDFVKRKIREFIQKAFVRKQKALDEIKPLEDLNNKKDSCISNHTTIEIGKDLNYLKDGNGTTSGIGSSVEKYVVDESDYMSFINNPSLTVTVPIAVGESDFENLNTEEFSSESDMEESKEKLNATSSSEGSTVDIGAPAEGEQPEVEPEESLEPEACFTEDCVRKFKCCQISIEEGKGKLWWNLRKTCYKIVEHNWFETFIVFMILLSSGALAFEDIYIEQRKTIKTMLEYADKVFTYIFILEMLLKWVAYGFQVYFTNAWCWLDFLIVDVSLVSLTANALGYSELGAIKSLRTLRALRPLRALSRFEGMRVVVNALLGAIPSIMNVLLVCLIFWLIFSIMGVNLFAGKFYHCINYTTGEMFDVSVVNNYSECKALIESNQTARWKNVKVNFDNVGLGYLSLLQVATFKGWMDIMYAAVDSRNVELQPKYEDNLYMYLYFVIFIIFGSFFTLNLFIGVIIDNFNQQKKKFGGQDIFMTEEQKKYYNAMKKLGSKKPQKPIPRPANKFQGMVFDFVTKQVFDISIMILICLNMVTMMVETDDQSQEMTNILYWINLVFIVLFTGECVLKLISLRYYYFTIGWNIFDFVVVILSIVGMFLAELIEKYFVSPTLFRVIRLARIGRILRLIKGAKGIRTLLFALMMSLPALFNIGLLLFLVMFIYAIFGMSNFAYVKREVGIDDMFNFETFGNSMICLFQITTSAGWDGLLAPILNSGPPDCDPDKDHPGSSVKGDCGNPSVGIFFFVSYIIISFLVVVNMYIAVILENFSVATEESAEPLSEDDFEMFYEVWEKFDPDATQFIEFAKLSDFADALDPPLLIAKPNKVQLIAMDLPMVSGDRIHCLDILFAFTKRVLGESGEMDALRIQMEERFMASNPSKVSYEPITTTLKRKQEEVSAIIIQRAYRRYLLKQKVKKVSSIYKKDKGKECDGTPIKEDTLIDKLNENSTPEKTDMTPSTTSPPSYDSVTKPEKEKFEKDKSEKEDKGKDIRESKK
T1 sequence (Q12809 whole entry): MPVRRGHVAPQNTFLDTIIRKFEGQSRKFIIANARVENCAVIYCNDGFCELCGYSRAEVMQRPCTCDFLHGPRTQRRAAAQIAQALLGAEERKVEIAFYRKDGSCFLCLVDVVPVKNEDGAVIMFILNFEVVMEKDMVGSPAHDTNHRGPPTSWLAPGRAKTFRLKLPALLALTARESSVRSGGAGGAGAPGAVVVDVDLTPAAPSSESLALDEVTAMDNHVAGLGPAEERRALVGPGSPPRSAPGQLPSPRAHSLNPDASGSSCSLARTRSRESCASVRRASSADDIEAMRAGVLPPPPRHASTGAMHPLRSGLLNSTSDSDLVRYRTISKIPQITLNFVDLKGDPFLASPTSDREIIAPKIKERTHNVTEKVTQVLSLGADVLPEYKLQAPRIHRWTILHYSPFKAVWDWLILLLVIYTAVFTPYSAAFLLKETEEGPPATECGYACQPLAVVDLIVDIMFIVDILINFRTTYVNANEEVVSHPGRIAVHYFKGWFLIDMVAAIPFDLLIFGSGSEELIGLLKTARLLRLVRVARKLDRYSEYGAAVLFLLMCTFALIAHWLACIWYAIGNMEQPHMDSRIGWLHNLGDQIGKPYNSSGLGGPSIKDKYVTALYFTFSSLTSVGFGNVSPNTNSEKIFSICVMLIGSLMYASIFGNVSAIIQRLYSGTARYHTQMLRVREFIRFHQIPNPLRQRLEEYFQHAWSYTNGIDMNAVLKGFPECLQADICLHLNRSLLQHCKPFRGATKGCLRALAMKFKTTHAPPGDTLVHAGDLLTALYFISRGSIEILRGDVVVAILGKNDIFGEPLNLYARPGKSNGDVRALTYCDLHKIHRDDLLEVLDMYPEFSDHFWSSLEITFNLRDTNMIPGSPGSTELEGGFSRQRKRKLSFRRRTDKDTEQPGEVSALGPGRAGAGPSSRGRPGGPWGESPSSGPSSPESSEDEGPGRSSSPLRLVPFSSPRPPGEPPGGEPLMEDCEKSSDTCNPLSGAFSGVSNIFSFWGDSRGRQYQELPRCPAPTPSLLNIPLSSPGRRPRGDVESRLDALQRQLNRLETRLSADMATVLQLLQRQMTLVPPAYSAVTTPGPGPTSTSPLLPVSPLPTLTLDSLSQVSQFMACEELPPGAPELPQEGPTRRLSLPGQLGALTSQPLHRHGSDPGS
T2 sequence (Q15858 whole entry): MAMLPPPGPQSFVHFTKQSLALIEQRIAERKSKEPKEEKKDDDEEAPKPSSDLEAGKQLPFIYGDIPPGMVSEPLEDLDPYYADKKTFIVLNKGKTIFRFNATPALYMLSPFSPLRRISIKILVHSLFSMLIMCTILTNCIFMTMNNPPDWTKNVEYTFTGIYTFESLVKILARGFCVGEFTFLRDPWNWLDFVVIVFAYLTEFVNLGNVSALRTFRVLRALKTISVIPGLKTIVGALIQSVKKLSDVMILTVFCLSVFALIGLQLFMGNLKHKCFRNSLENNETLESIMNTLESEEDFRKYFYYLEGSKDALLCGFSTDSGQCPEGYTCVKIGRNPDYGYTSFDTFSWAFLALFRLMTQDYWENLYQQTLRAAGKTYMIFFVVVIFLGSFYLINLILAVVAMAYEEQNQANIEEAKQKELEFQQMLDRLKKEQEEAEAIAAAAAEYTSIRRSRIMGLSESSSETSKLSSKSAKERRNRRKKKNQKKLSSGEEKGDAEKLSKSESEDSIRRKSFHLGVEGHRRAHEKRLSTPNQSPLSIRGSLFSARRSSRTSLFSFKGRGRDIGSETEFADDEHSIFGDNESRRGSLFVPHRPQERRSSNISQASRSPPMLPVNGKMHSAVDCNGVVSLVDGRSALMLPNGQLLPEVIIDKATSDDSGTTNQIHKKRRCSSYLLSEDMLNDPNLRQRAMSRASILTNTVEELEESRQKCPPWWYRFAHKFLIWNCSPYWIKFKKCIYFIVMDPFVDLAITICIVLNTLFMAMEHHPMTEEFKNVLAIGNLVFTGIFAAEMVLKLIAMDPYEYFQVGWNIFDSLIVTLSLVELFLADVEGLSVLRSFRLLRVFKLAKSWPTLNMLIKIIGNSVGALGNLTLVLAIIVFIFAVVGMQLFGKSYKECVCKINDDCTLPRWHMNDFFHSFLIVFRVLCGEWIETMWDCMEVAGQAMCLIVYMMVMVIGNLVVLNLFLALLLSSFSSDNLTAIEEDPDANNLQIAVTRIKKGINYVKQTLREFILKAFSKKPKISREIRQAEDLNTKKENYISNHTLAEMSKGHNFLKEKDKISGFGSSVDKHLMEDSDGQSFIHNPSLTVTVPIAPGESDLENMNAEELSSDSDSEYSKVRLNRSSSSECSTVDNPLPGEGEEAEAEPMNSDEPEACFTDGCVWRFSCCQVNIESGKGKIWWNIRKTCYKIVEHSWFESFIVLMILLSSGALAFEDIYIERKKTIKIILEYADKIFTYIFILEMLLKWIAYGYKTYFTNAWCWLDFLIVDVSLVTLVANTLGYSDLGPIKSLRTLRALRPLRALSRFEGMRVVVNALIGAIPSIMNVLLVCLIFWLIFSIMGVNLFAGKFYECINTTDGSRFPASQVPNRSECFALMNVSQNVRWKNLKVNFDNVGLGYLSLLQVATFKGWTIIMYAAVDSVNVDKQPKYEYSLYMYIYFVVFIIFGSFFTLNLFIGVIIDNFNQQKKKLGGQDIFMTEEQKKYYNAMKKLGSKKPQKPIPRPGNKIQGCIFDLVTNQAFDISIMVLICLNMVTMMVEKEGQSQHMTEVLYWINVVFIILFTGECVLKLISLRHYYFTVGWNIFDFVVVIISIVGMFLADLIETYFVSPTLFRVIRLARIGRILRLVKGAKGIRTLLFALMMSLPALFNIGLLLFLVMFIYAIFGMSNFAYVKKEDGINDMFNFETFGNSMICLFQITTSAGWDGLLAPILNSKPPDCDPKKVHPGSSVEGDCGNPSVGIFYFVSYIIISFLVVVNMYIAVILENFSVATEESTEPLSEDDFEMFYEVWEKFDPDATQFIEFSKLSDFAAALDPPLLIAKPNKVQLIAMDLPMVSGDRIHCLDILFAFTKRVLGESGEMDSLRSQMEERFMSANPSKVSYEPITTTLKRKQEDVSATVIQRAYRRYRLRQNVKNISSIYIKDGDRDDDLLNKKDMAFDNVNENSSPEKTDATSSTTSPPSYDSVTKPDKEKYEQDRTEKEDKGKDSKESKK

CN(C)c1cccc2c(S(N)(=O)=O)cccc12 [dansyl amine, reference compound]
binding to human prostate tissue (microscopy) (human prostate tissue): does not bind

CCCCCCC[C@](O)(C(N)=O)c1cccc(Cl)c1 [Compound (R)-(−)-1, (R)-(−)-2-(3-chloro-phenyl)-2-hydroxy-nonanoic acid amide]
% inhibition for hERG assay, 0.3 μM (hERG potassium channels): 16% | % inhibition for hERG assay, 1 μM (hERG potassium channels): 26% | % inhibition for hERG assay, 3 μM (hERG potassium channels): 20% | % inhibition for hERG assay, 10 μM (hERG potassium channels): 57% | % inhibition for hERG assay, 30 μM (hERG potassium channels): 90% | IC50 (hNav1.7): 1880 nM | cell death of CWR22rv-1 cells (CWR22rv-1 cells; 25 μM, after 24 h): approximately 25% | cell death of CWR22rv-1 cells (CWR22rv-1 cells; after 72 h): 60% | inhibition at 1 µM [1]: 67.4 ± 5.3% | inhibition at 10 µM [1]: 94.3 ± 0.6%

CCCCCCC[C@@](O)(C(N)=O)c1cccc(Cl)c1 [Compound (S)-(+)-1, (S)-(+)-2-(3-chloro-phenyl)-2-hydroxy-nonanoic acid amide]
% inhibition for hERG assay, 0.3 μM (hERG potassium channels): 10% | % inhibition for hERG assay, 1 μM (hERG potassium channels): 25% | % inhibition for hERG assay, 3 μM (hERG potassium channels): 33% | % inhibition for hERG assay, 10 μM (hERG potassium channels): 65% | % inhibition for hERG assay, 30 μM (hERG potassium channels): 90% | IC50 (hNav1.7): 2620 nM | cell death of CWR22rv-1 cells (CWR22rv-1 cells; 25 μM, after 24 h): marginal effects | cell death of CWR22rv-1 cells (CWR22rv-1 cells; after 72 h): 40% | inhibition at 1 µM [1]: 34.9 ± 2.3% | inhibition at 10 µM [1]: 91.5 ± 0.5%
